The record followed here is patent US11260049B2, “TRPV4 antagonists” (GlaxoSmithKline Intellectual Property (No. 2) Limited, priority 2016, dated 2022).

pIC50: −log10 of the molar value.

This assay deals with human TRPV4 (Homo sapiens (Human), UniProt Q9HBA0). As to the kind of experiment: FLIPR assay for hTRPV4 expressed in BHK cells. Type of assay: cell-based. The settings on record: inhibition of Agonist Compound (EC80)-induced calcium signal; BHK/AC9 cells expressing human TRPV4; read-out: IC50. As to the method: FLIPR Assay for hTRPV4 Expressed in BHK Cells:
TRPV4 channel activation results in an influx of divalent and monovalent cations including calcium. The resulting changes in intracellular calcium were monitored using a calcium specific fluorescent dye Fluo-4 (MDS Analytical Technologies). BHK/AC9 cells transduced with BacMam virus expressing the human TRPV4 gene at a MOI of 78 were plated in a 384 well poly-D lysine coated plate (15,000 cells/well in 50 μL culture medium containing DMEM/F12 with 15 mM HEPES, 10% FBS, 1% Penicillin-Streptomycin and 1% L-glutamine). Cells were incubated for 24 hours at 37° C. and 5% CO2. Culture medium was then aspirated using a Tecan plate-washer and replaced with 20 μL/well of dye loading buffer: HBSS, 500 μM Brilliant Black (MDS Analytical Technologies), and 2 μM Fluo-4 AM. Dye loaded plates were then incubated in the dark at room temperature for 1˜1.5 hours.

Sequence of human TRPV4 (Q9HBA0 whole entry): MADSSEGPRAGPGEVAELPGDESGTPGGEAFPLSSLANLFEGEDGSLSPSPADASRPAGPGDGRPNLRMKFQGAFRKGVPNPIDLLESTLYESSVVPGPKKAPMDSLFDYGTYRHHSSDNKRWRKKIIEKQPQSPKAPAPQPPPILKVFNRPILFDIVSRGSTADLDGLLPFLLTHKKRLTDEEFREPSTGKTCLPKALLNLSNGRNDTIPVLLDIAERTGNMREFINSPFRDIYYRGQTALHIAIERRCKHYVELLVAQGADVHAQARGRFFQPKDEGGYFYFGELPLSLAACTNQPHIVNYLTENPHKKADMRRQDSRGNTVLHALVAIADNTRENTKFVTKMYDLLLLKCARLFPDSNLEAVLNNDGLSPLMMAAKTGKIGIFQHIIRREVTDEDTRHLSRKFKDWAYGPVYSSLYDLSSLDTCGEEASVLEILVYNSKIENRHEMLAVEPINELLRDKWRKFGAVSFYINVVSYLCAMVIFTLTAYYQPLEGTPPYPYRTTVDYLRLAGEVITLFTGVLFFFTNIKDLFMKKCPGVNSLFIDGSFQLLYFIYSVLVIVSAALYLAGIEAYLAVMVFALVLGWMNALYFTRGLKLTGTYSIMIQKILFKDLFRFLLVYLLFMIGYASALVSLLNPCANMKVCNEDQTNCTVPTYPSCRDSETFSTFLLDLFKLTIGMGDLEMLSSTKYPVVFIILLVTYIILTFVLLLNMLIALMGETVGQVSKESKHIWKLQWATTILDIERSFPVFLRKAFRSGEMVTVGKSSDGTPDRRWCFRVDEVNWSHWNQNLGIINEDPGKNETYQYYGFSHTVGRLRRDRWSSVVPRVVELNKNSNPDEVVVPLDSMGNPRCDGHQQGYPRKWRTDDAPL

Regarding `N#Cc1cc(S(=O)(=O)[C@H]2CN(S(=O)(=O)c3ccc(Cl)cc3Cl)C[C@@]2(O)CO)ccc1Cl` [Example 103, 2-chloro-5-(((3S,4R)-1-((2,4-dichlorophenyl)sulfonyl)-4-hydroxy-4-(hydroxymethyl)pyrrolidin-3-yl)sulfonyl)benzonitrile], the pIC50 is 7.00 to 8.00.

As to `N#Cc1ccc(S(=O)(=O)[C@H]2CN(S(=O)(=O)c3ccc(C(F)(F)F)cc3Cl)C[C@@]2(O)CO)cn1` [Example 92, 5-(((3S,4R)-1-((2-chloro-4-(trifluoromethyl)phenyl)sulfonyl)-4-hydroxy-4-(hydroxymethyl)pyrrolidin-3-yl)sulfonyl)picolinonitrile], the pIC50 was 7.00 to 8.00.

Consider `COc1ccc(S(=O)(=O)N2C[C@H](S(=O)(=O)c3ccc(C#N)cc3)[C@](O)(CO)C2)c(Br)c1` [Example 60, 4-(((3S,4R)-1-((2-bromo-4-methoxyphenyl)sulfonyl)-4-hydroxy-4-(hydroxymethyl)pyrrolidin-3-yl)sulfonyl)benzonitrile], for which the pIC50 is 7.00 to 8.00.

Regarding `N#Cc1ccc(S(=O)(=O)[C@H]2CN(S(=O)(=O)c3ccc(F)cc3Cl)C[C@@]2(O)CO)cc1` [Example 62, 4-(((3S,4R)-1-((2-chloro-4-fluorophenyl)sulfonyl)-4-hydroxy-4-(hydroxymethyl)pyrrolidin-3-yl)sulfonyl)benzonitrile], the pIC50 was 7.00 to 8.00.

For `N#Cc1ccc(S(=O)(=O)N2C[C@H](S(=O)(=O)c3cnc(C(F)(F)F)nc3)[C@](O)(CO)C2)c(Cl)c1` [Example 112, 3-chloro-4-(((3R,4S)-3-hydroxy-3-(hydroxymethyl)-4-((2-(trifluoromethyl)pyrimidin-5-yl)sulfonyl)pyrrolidin-1-yl)sulfonyl)benzonitrile], the pIC50 was 7.00 to 8.00.

For `COc1cc(Br)ccc1S(=O)(=O)N1C[C@H](S(=O)(=O)c2ccc(C#N)cc2)[C@](O)(CO)C1` [Example 52, 4-(((3S,4R)-1-((4-bromo-2-methoxyphenyl)sulfonyl)-4-hydroxy-4-(hydroxymethyl)pyrrolidin-3-yl)sulfonyl)benzonitrile], the pIC50 was 7.00 to 8.00.

With `O=S(=O)(c1ccc(F)cc1)[C@H]1CN(S(=O)(=O)c2ccc(Cl)cc2Cl)C[C@@]1(O)CO` [Example 102, (3R,4S)-1-((2,4-dichlorophenyl)sulfonyl)-4-((4-fluorophenyl)sulfonyl)-3-(hydroxymethyl)pyrrolidin-3-ol], the pIC50 was 7.00 to 8.00.

For `N#Cc1ccc(S(=O)(=O)[C@H]2CN(S(=O)(=O)c3ccccc3C(F)(F)F)C[C@@]2(O)CO)cc1` [Example 41, 4-(((3S,4R)-4-hydroxy-4-(hydroxymethyl)-1-((2-(trifluoromethyl)phenyl)sulfonyl)pyrrolidin-3-yl)sulfonyl)benzonitrile], the pIC50 is 7.00 to 8.00.

With `N#Cc1ccc(S(=O)(=O)N2C[C@H](S(=O)(=O)c3ccc(Cl)cc3)[C@@](O)(CO)C2)c(Cl)c1` [Example 23, 3-chloro-4-(((3S,4S)-4-((4-chlorophenyl)sulfonyl)-3-hydroxy-3-(hydroxymethyl)pyrrolidin-1-yl)sulfonyl)benzonitrile], the pIC50 was 7.00 to 8.00.

With `N#Cc1ccc(S(=O)(=O)N2C[C@H](S(=O)(=O)c3ccc(Cl)cn3)[C@](O)(CN)C2)c(Cl)c1` [Example 121, 4-(((3S,4S)-3-(aminomethyl)-4-((5-chloropyridin-2-yl)sulfonyl)-3-hydroxypyrrolidin-1-yl)sulfonyl)-3-chlorobenzonitrile], the pIC50 was 8.00 to 10.00.

Take `N#Cc1c(F)cc(S(=O)(=O)[C@H]2CN(S(=O)(=O)c3ccc(Cl)cc3Cl)C[C@@]2(O)CO)cc1F` [Example 87, 4-(((3S,4R)-1-((2,4-dichlorophenyl)sulfonyl)-4-hydroxy-4-(hydroxymethyl)pyrrolidin-3-yl)sulfonyl)-2,6-difluorobenzonitrile]: the pIC50 was 8.00 to 10.00.

Turning to `N#Cc1ccc(S(=O)(=O)N2C[C@H](S(=O)(=O)c3ccc(Br)cn3)[C@](O)(CO)C2)c(Cl)c1` [Example 113, 4-(((3R,4S)-4-((5-bromopyridin-2-yl)sulfonyl)-3-hydroxy-3-(hydroxymethyl)pyrrolidin-1-yl)sulfonyl)-3-chlorobenzonitrile], the pIC50 is 8.00 to 10.00.

Regarding `N#Cc1ccc(S(=O)(=O)[C@H]2CN(S(=O)(=O)c3ccc(OC(F)(F)F)cc3Cl)C[C@]2(O)CO)cc1F` [Example 8, 4-(((3S,4S)-1-((2-chloro-4-(trifluoromethoxy)phenyl)sulfonyl)-4-hydroxy-4-(hydroxymethyl)pyrrolidin-3-yl)sulfonyl)-2-fluorobenzonitrile], the pIC50 is 7.00 to 8.00.

Consider `O=S(=O)(c1ccc(Cl)c(F)c1)[C@H]1CN(S(=O)(=O)c2ccc(Cl)cc2Cl)C[C@]1(O)CO` [Example 76, (3S,4S)-4-((4-chloro-3-fluorophenyl)sulfonyl)-1-((2,4-dichlorophenyl)sulfonyl)-3-(hydroxymethyl)pyrrolidin-3-ol], for which the pIC50 is 7.00 to 8.00.

Consider `N#Cc1ccc(S(=O)(=O)[C@H]2CN(S(=O)(=O)c3ccc(Cl)cc3Cl)C[C@]2(O)CO)cc1F` [Example 75, 4-(((3S,4S)-1-((2,4-dichlorophenyl)sulfonyl)-4-hydroxy-4-(hydroxymethyl)pyrrolidin-3-yl)sulfonyl)-2-fluorobenzonitrile], for which the pIC50 was 8.00 to 10.00.

On to `N#Cc1ccc(S(=O)(=O)N2C[C@H](S(=O)(=O)c3ccc(Br)cc3)[C@@](O)(CO)C2)c(Cl)c1` [Example 24, 4-(((3S,4S)-4-((4-bromophenyl)sulfonyl)-3-hydroxy-3-(hydroxymethyl)pyrrolidin-1-yl)sulfonyl)-3-chlorobenzonitrile], for which the pIC50 is 7.00 to 8.00.

Regarding `N#Cc1ccc(S(=O)(=O)[C@H]2CN(S(=O)(=O)c3ccc(C(F)(F)F)cc3Cl)C[C@]2(O)CO)cc1` [Example 90, 4-(((3S,4S)-1-((2-chloro-4-(trifluoromethyl)phenyl)sulfonyl)-4-hydroxy-4-(hydroxymethyl)pyrrolidin-3-yl)sulfonyl)benzonitrile], the pIC50 is 7.00 to 8.00.

On to `N#Cc1ccc(S(=O)(=O)N2C[C@H](S(=O)(=O)c3ccc(Br)cn3)[C@@](O)(CO)C2)c(Cl)c1` [Example 81, 4-(((3S,4S)-4-((5-bromopyridin-2-yl)sulfonyl)-3-hydroxy-3-(hydroxymethyl)pyrrolidin-1-yl)sulfonyl)-3-chlorobenzonitrile], for which the pIC50 was 7.00 to 8.00.

Consider `N#Cc1ccc(S(=O)(=O)[C@H]2CN(S(=O)(=O)c3ccc(C#N)cc3Cl)C[C@@]2(O)CO)cc1` [Example 45, 3-chloro-4-(((3R,4S)-4-((4-cyanophenyl)sulfonyl)-3-hydroxy-3-(hydroxymethyl)pyrrolidin-1-yl)sulfonyl)benzonitrile], for which the pIC50 was 8.00 to 10.00.

In the case of `N#Cc1ccc(S(=O)(=O)[C@H]2CN(S(=O)(=O)c3ccccc3Cl)C[C@]2(O)CO)cc1F` [Example 4, 4-(((3S,4S)-1-((2-chlorophenyl)sulfonyl)-4-hydroxy-4-(hydroxymethyl)pyrrolidin-3-yl)sulfonyl)-2-fluorobenzonitrile], the pIC50 was 7.00 to 8.00.

As to `Cc1ccc(S(=O)(=O)N2C[C@H](S(=O)(=O)c3ccc(C#N)c(F)c3)[C@@](O)(CO)C2)c(Cl)c1` [Example 6, 4-(((3S,4S)-1-((2-chloro-4-methylphenyl)sulfonyl)-4-hydroxy-4-(hydroxymethyl)pyrrolidin-3-yl)sulfonyl)-2-fluorobenzonitrile], the pIC50 was 7.00 to 8.00.

For the compound `C[C@H](O)[C@]1(O)CN(S(=O)(=O)c2ccc(C#N)cc2Cl)C[C@@H]1S(=O)(=O)c1ccc(Cl)cn1` [Example 119, 3-chloro-4-(((3R,4S)-4-((5-chloropyridin-2-yl)sulfonyl)-3-hydroxy-3-((S)-1-hydroxyethyl)pyrrolidin-1-yl)sulfonyl)benzonitrile], the pIC50 is 8.00 to 10.00.

As for `N#Cc1ccc(S(=O)(=O)[C@H]2CN(S(=O)(=O)c3ccc(F)cc3Cl)C[C@@]2(O)CO)cc1F` [Example 12, 4-(((3S,4R)-1-((2-chloro-4-fluorophenyl)sulfonyl)-4-hydroxy-4-(hydroxymethyl)pyrrolidin-3-yl)sulfonyl)-2-fluorobenzonitrile], the pIC50 was 8.00 to 10.00.

In the case of `N#Cc1ccc(S(=O)(=O)N2C[C@H](S(=O)(=O)c3ccc(Cl)cn3)[C@@](O)(CN)C2)c(Cl)c1` [Example 125, 4-(((3R,4S)-3-(aminomethyl)-4-((5-chloropyridin-2-yl)sulfonyl)-3-hydroxypyrrolidin-1-yl)sulfonyl)-3-chlorobenzonitrile], the pIC50 was 8.00 to 10.00.

With `N#Cc1ccc(S(=O)(=O)[C@H]2CN(S(=O)(=O)c3ccc(C(F)F)cc3Cl)C[C@@]2(O)CO)cc1` [Example 42, 4-(((3S,4R)-1-((2-chloro-4-(difluoromethyl)phenyl)sulfonyl)-4-hydroxy-4-(hydroxymethyl)pyrrolidin-3-yl)sulfonyl)benzonitrile], the negative logarithm of the IC50 (pIC50) was 7.00 to 8.00.

Regarding `N#Cc1c(F)cc(S(=O)(=O)[C@H]2CN(S(=O)(=O)c3ccc(C(F)(F)F)cc3Cl)C[C@@]2(O)CO)cc1F` [Example 91, 4-(((3S,4R)-1-((2-chloro-4-(trifluoromethyl)phenyl)sulfonyl)-4-hydroxy-4-(hydroxymethyl)pyrrolidin-3-yl)sulfonyl)-2,6-difluorobenzonitrile], the pIC50 is 7.00 to 8.00.

In the case of `O=S(=O)(c1ccc(Cl)c(F)c1)[C@H]1CN(S(=O)(=O)c2ccc(C(F)(F)F)cc2Cl)C[C@@]1(O)CO` [Example 98, (3R,4S)-4-((4-chloro-3-fluorophenyl)sulfonyl)-1-((2-chloro-4-(trifluoromethyl)phenyl)sulfonyl)-3-(hydroxymethyl)pyrrolidin-3-ol], the pIC50 is 7.00 to 8.00.

The pIC50 is −log10 of the IC50, conventionally taken in molar units.
